Counter-ions that a name gives are not always drawn.
Biological target: Chk-1 kinase (Homo sapiens (Human), UniProt O14757)
Experiment: Chk-1 kinase inhibiting activity (33P-ATP filter-binding kinase assay)
Format: biochemical
Settings: against Chk-1 kinase; recombinant full length GST-tagged, 0.5 nM; CHKtide substrate 20 μM; 120 minutes at room temperature
Protocol: Chk-1 Kinase Inhibiting Activity
The compounds of the invention were tested for activity against Chk-1 kinase using the materials and protocols set out below.
Base Reaction buffer: 20 mM Hepes (pH 7.5), 10 mM MgCl2, 1 mM EGTA, 0.02% Brij35, 0.02 mg/ml BSA, 0.1 mM Na3VO4, 2 mM DTT, 1% DMSO • Required cofactors are added individually to each kinase reaction Reaction Procedure: (i) Prepare indicated substrate in freshly prepared Base Reaction Buffer (ii) Deliver any required cofactors to the substrate solution above (iii) Deliver indicated kinase into the substrate solution and gently mix (iv) Deliver compounds in DMSO into the kinase reaction mixture (v) Deliver ^33P-ATP (specific activity 0.01 μCi/μl final) into the reaction mixture to initiate the reaction. (vi) Incubate kinase reaction for 120 minutes at room temperature (vii) Reactions are spotted onto P81 ion exchange paper (Whatman #3698-915) (viii) Wash filters extensively in 0.1% phosphoric acid. (ix) Dry filters and measure counts in scintillation counter Kinase Information: CHK-1H—Genbank Accession # AF016582 Recombinant full length construct, N-terminal GST tagged, purified from insect cells. […]
From the results obtained by following the above protocol, the IC50 values against Chk-1 kinase of each of the compounds of Examples 1-153 were determined and these are shown in Table 3.

Chain of Chk-1 kinase (O14757 whole entry): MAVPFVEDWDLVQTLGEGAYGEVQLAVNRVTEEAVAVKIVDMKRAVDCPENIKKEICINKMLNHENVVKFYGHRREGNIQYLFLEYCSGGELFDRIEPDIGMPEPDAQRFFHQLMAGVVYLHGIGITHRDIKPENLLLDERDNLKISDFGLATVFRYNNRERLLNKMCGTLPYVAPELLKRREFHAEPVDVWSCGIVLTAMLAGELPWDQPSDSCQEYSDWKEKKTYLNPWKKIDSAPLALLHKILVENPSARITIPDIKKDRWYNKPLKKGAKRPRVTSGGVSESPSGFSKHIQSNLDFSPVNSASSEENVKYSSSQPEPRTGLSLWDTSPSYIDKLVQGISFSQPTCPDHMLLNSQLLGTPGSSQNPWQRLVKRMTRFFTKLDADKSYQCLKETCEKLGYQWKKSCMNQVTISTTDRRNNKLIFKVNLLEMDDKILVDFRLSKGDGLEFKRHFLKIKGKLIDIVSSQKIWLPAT

COc1cc(CN2CC[C@@H](OC)C2)ccc1-c1cc(Nc2cnc(C#N)cn2)n[nH]1 [Example 125, 5-[[5-[2-methoxy-4-[[(3R)-3-methoxypyrrolidin-1H-yl]methyl]phenyl]-1H-pyrazol-3-yl]amino]pyrazine-2-carbonitrile, hydrochloride]
IC50: 0.28 nM

COc1cc(CN2CC[C@H](OC)C2)ccc1-c1cc(Nc2cnc(C#N)cn2)n[nH]1 [Example 124, 5-[[5-[2-methoxy-4-[[(3S)-3-methoxypyrrolidin-1H-yl]methyl]phenyl]-1H-pyrazol-3-yl]amino]pyrazine-2-carbonitrile, hydrochloride]
IC50: 0.25 nM

Reference: patent US10973817B2, “Pharmaceutical compounds” (SENTINEL ONCOLOGY LIMITED, priority 2014, dated 2021)
